From paper PMC7582929, “Characterization of Cetacean Proline-Rich Antimicrobial Peptides Displaying Activity against ESKAPE Pathogens” (International Journal of Molecular Sciences, 2020)
Like-named read-outs stand apart in the source and are kept apart here. Ends that are not written are not given here.

What was measured:
E. coli BW25113—Δ SbmA = type: cell-based, Escherichia coli; settings: E. coli BW25113 ΔSbmA, median of n ≥ 3
From the text: (§1) The following microbial reference strains were utilized: Escherichia coli BW25113, E. coli ATCC 25922, E. coli ML35p, Enterococcus faecium ATCC 19434, Staphylococcus aureus ATCC 25923, Klebsiella pneumoniae ATCC 700603, Acinetobacter baumannii ATCC 19606, Pseudomonas aeruginosa ATCC 27853, Stenotrophomonas maltophilia ATCC 13637, Candida albicans ATCC 90029. The ΔsbmA strain of E. coli BW25113 belongs to the KEIO collection and the clinical isolate of Enterobacter agglomerans was kindly provided by Prof. C. Lagatolla from the Microbiology Laboratory of the University of Trieste. All the growth media were purchased from Difco (part of Thermo Fisher Scientific, MA, USA).
(§2) Bacteria were grown in Mueller-Hinton broth (MHB), except E. faecium, which was grown overnight in brain-heart infusion (BHI); E. coli BW25113 ΔsbmA was grown in the presence of 50 μg/mL kanamycin. C. albicans was grown in Sabouraud broth.
(§3) All the strains were grown overnight at 37 °C (except E. agglomerans, S. maltophilia and C. albicans, which were grown at 30 °C), with shaking at 140 rpm. The overnight bacterial cultures were then diluted approximately 1:40 in fresh growth medium and incubated at 37 °C or 30 °C with shaking (140 rpm) until an OD600 of between 0.3 and 0.5 was reached.
(§4) The minimum inhibitory concentration was determined by the broth microdilution method according to the NCCLS protocol. Briefly, an overnight bacterial or fungal culture was diluted in fresh MH or Sabouraud broth, respectively (300 µL O/N culture in 10 mL MHB/Sabouraud) and the culture was let grow at 37 °C or 30 °C to reach OD600 between 0.3 and 0.5. Serial two-fold dilutions of peptides were then performed in culture medium (Sabouraud, MHB or 20% MHB in PBS), to a final volume of 50 µL in the wells of a round bottom microtiter plate (Sarstedt, Milan, Italy), and then the bacterial suspension with a load of 5 × 10^5 CFU/mL was added to the plate, halving the final concentration of bacteria and peptides. The culture was grown at 37 °C or 30 °C and the MIC was determined after 18h by visual inspection as the first clear well. The assessment was performed taking into consideration at least three independent experiments performed in duplicate.

C. albicans ATCC 90029 = type: cell-based, Candida albicans; settings: ATCC 90029, 18 h
From the text: as §1, §2, §3, §4

E. faecium ATCC 19434 = type: cell-based, Enterococcus faecium; settings: ATCC 19434, 18 h
From the text: as §1, §2, §3, §4

[1] = system: E. agglomerans—clinical isolate; type: cell-based, Enterobacter agglomerans; settings: 18 h
From the text: as §1, §2, §3, §4

[2] = system: S. maltophilia ATCC 13637; type: cell-based, Stenotrophomonas maltophilia; settings: ATCC 13637, 18 h
From the text: as §1, §2, §3, §4

[3] = system: panel of reference pathogenic bacterial and fungal strains; type: cell-based
From the text: as §1, §2, §3, §4

[4] = system: human red blood cells (hRBCs); type: cell-based
Description: Figure 4 Evaluation of in vitro toxicity of CePrAMPs. (A) Hemolysis assay against human red blood cells (hRBCs), re-suspended in PBS at 4% (v/v) concentrations, measured as the absorbance of released hemoglobin (540 nm) after 1 h of exposure to the peptides. Results are reported as percentages with respect to hRBCs treated for 1 h with 1% Triton X-100 (considered as 100%), and are the average of three independent experiments (n = 3); (B,C) Evaluation via MTT assay of the viability of the indicated eukaryotic cell lines after exposure to the peptides. HaCat (B) or MEC-1 (C) cells were incubated with the different peptides at increasing concentrations for 21 h (B) or 20 h (C), before treating cells with MTT. Results are reported as the percentage of viable cells with respect to the untreated control, and are the average of three independent experiments (n = 3) (* = p < 0.05; ** = p < 0.01).
The lytic potential towards eukaryotic cell membranes was assessed by measuring the release of hemoglobin from human red blood cells (hRBCs) after exposure to the peptides. hRBCs were collected from single donor- human whole blood (Cambridge Bioscience, UK), being isolated by centrifugation, washed three times with PBS, and resuspended to either 8% or 0.8% (v/v) in PBS. […]

E. coli BW25113 = type: cell-based, Escherichia coli
From the text: as §1, §2, §3, §4

[5] = system: bacterial protein synthesis (E. coli extracts); experiment: In vitro transcription/translation assay (firefly luciferase reporter); type: biochemical; settings: E. coli lysate, 30 °C, 1 h, increasing peptide concentrations up to 25 µM, n ≥ 3
Description: Several PrAMPs derived from artiodactyl or insect peptides act by interfering with bacterial protein synthesis. To evaluate if the cePrAMPs also targeted this process, in vitro transcription/translation assays were carried out in their presence, assessing the inhibition of the synthesis of a reporter luciferase (Figure 3). […].  Figure 3 Luciferase activity after in vitro transcription/translation reactions in presence of cePrAMPs. E. coli extracts were incubated with the firefly luciferase reporter DNA in the presence of increasing concentrations of cePrAMPs. Results are presented as the percentage with respect to control samples treated with only RNase-free water. Average and standard deviation of at least three independent experiments (n ≥ 3).
Reactions were set up using lysates of the RTS 100 E. coli HY kit from Biotechrabbit (Berlin, Germany) according to the user manual. Briefly, 1 μL of peptide solution was added to each reaction to reach the desired final concentration in a final volume of 6 μL. […] The presence of luciferase reporter protein was quantified by measuring its luminescence using a Infinite M200 plate reader (Tecan, Männedorf, Switzerland). The relative luminescence values for all the assays were calculated as a percentage of the positive control (reactions with nuclease-free water instead of the peptides) using three independent replicates. […]

[6] = Resuspension of the peptides in Mueller-Hinton broth; type: physicochemical; settings: 100% Mueller-Hinton broth
From the text: . To solve this issue and determine how it affected antimicrobial activity, bacterial susceptibility tests were repeated with most strains using 20% Mueller-Hinton broth. With some exceptions, these four peptides did indeed increase their activity in this medium, as did the others, in such a manner that the relative differences remained substantially unchanged (Table S1). Therefore, sequence-activity considerations remain valid.

[7] = system: K. pneumoniae ATCC 700603; type: cell-based, Klebsiella pneumoniae; settings: 20% Mueller-Hinton broth in PBS, median of n ≥ 3
From the text: as §1, §2, §3
(§5) The minimum inhibitory concentration was determined by the broth microdilution method according to the NCCLS protocol. […]

P. aeruginosa ATCC 27853 = type: cell-based, Pseudomonas aeruginosa; settings: 20% Mueller-Hinton broth in PBS, median of n ≥ 3
From the text: as §1, §2, §3, §5

S. aureus ATCC 25923 = type: cell-based, Staphylococcus aureus; settings: ATCC 25923, 18 h
From the text: as §1, §2, §3, §5

[8] = broth microdilution (NCCLS), Mueller-Hinton broth, 37 °C, 18 h, visual
[9] = 20% Mueller-Hinton broth in PBS
[10] = against P. aeruginosa and E. faecium
[11] = against all the Gram-negative pathogen and C. albicans

| Sequence | MIC (E. coli BW25113—Δ SbmA; [8]) | MIC (C. albicans ATCC 90029) | MIC (E. faecium ATCC 19434) | MIC [1] | MIC [2] | MIC (E. coli BW25113—Δ SbmA; [9]) | MIC [3, 10] | MIC ([3]; against P. aeruginosa and E. faecium, listed as Bal) | MIC [3, 11] | hemolytic effect [4] | MIC (E. coli BW25113; BW25113, 18 h) | MIC (E. coli BW25113; E. coli BW25113, 20% Mueller-Hinton broth in PBS, median of n ≥ 3) | inhibition of in vitro transcription/translation (luciferase activity) [5] | resuspension in growth medium [6] | MIC [7] | MIC (P. aeruginosa ATCC 27853) | MIC ([3]; against P. aeruginosa and E. faecium, listed as Lip) | MIC (S. aureus ATCC 25923) |
| --- | --- | --- | --- | --- | --- | --- | --- | --- | --- | --- | --- | --- | --- | --- | --- | --- | --- | --- |
| RRIPFWPPNLPGPRRPPWFLPDFRIPRIPRKR [Orc1] | 2 µM | 4 µM | 16 µM | 8 µM | 2 µM |  |  |  |  |  |  |  |  |  |  |  |  |  |
| RRIRFRPPRLPRPRPRPWIPPRFPFPRIPGKR [Bal1] | 2 µM | 1.5 µM | 4 µM | 0.5 µM | 1 µM | 0.5 µM | 2 to 4 µM | ≤ 4 µM | ≤ 2 µM |  |  |  |  |  |  |  |  |  |
| RRIPFWPIPLRWQWPPPWFPPSFPIPRISRKR [Del1] | 8 µM | 8 µM | 4 µM | 8 µM | 4 µM | 1 µM |  |  |  | relatively high hemolytic effect |  |  |  |  |  |  |  |  |
| RRIRFPFPPFPWQWPPAGF [Neo1] |  | 32 µM | >64 µM | 64 µM | 24 µM |  |  |  |  |  | 24 µM | 16 µM | almost no inhibitory activity on protein synthesis | difficult to resuspend in 100% Mueller-Hinton broth | > 64 µM | 64 µM |  |  |
| RRIRIRPPRLPRPRPRPWFPPRFPIPRIPGKR [Lip1] | 1.5 µM | 2 µM | 4 µM | 0.5 µM | 0.5 µM | 0.5 µM | 2 to 4 µM |  | ≤ 2 µM |  |  |  |  |  |  |  | ≤ 4 µM |  |
| RRIRPRPPRLPRPRPRPLPFPRPGPRPIPRPLPFP [Bac7(1-35), reference compound] | 8 µM | 2 µM | 64 µM | 0.5 µM | 1 µM | 2 µM |  |  |  |  |  |  |  |  |  |  |  | >64 µM |
